From paper PMC8303988, “Cholate Disrupts Regulatory Functions of Cytochrome c Oxidase” (Cells, 2021)

Tested on: T1, cholate-CytOx; isolated cytochrome c oxidase from bovine heart
T1 construct: gene MT-CO1; with Cytochrome c oxidase subunit 1; Cytochrome c oxidase subunit 2; Cytochrome c oxidase subunit 3; Cytochrome c oxidase subunit 5A, mitochondrial; Cytochrome c oxidase subunit 5B, mitochondrial; Cytochrome c oxidase subunit 6A2, mitochondrial; Cytochrome c oxidase subunit 6B1; Cytochrome c oxidase subunit 6C; Cytochrome c oxidase subunit 7A1, mitochondrial; Cytochrome c oxidase subunit 7B, mitochondrial; Cytochrome c oxidase subunit 7C, mitochondrial; Cytochrome c oxidase subunit 8B, mitochondrial
Assay: UV/VIS absorption spectroscopy, displacement of bound cholate by ADP
Format: binding, Bos taurus
Conditions: 0 °C, pH 7.4; cholate bound during purification; nucleotide sites

C[C@H](CCC(=O)O)[C@H]1CC[C@H]2[C@@H]3[C@H](O)C[C@@H]4C[C@H](O)CC[C@]4(C)[C@H]3C[C@H](O)[C@]12C [cholate]
UV/VIS absorption spectroscopy, displacement of bound cholate by ADP: exchange of cholate by ADP is a very slow process with a half-time of about
